Survivin expression, IC50 and viability data for 1 compound are collected here from publication PMC9501633, “Synthesis, Characterisation and Mechanism of Action of Anticancer 3-Fluoroazetidin-2-ones” (Pharmaceuticals, 2022).

What all share (assay type): cell-based, human
In one data set the test system is survivin. The experiment in a line: Western blot of apoptosis regulatory proteins in MCF-7 cells. The conditions noted are these: MCF-7, 0.05, 0.1 and 0.5 μM, dose- and time-dependent. The text has this:
Survivin is a member of the inhibitor of apoptosis (IAP) protein family. It is an essential anti-apoptotic protein marker that is overexpressed in most tumour cells and is associated with a poor clinical outcome. Survivin inhibits caspase activation, which is used as an indicator of apoptosis cascades. Survivin selective inhibitor molecules have been identified as cancer therapeutics, including survivin–partner protein interaction inhibitors, survivin homodimerisation inhibitors, survivin gene transcription inhibitors and survivin mRNA inhibitors. We examined the effect of a range of concentrations of compound 33 (0.05, 0.1 and 0.5 μM) on the level of survivin expressed.
Western blot analysis was performed according to the protocols we previously described. MCF-7 cells were seeded at a density of 1 × 10^5 cells/flask in T25 flasks. After 48 h, whole cell lysates were prepared from untreated cells or cells treated with vehicle control (EtOH, 0.1% v/v) or cells treated with compound 33 (0.05 μM, 0.1 μM and 0.5 μM). […] Equal amounts of protein (as determined by a BCA assay) were resolved by SDS-PAGE (12%) followed by transfer to PVDF membranes. […] Proteins were detected using enhanced chemiluminescent Western blot detection (Clarity Western ECL substrate) (Bio-Rad) on the ChemiDoc MP System (Bio-Rad). […]
In general terms: Immunoblotting shows a protein as a band on a membrane.

For the next data set, the system named is HEK-293T cells. The experiment in a line: AlamarBlue cell viability assay, non-tumourigenic cells. Particulars: Homo sapiens, 72 h. Here is the method: (§1) The cytotoxicity of the potent β-lactam 33 was investigated in the non-tumourigenic HEK-293T cell line (normal human embryonic kidney) at 72 h. […] For example, the cell viability of HEK cells at 1 μM was 88% in contrast to the cell viability of 36% for MCF-7 cells at 1 μM.
(§2) Cells were seeded at a density of 5 × 10^3 cells/well (MCF-7 and MDA-MB-231) and 1 × 10^4 cells/well (HEK-293T) in 96-well plates (200 μL per well). After 24 h, cells were then treated with medium alone, with vehicle (1% ethanol (v/v)) or with CA-4 or β-lactam compounds at 1 μM and 10 μM concentrations. […] Cell proliferation for MCF-7 cells was analysed with the AlamarBlue assay (Invitrogen Corp.) as previously described by us. […] Fluorescence results were obtained with a 96-well fluorimeter with excitation at 530 nm and emission at 590 nm with results recorded as percentage viability relative to vehicle control (100%). […]
(§3) Figure 4 Antiproliferative activity of 3-fluoro β-lactams on MCF-7, MDA-MB-231, Hs578T and Hs578T isogenic subclone Hs578T(i)8 breast cancer cells and non-tumourigenic HEK-293T cells. […] Cell viability was expressed as a percentage of vehicle control (ethanol 1% (v/v))-treated cells. […] Cell viability was expressed as a percentage of vehicle control (ethanol 1% (v/v))-treated cells and was measured by AlamarBlue assay (average of three independent experiments). […]

Assay in data set [1]: as above
Particulars: human, HEK-293T cells (non-tumourigenic), 1 μM. Here is the method:
as §1, §2, §3

Some results are limits rather than exact numbers.

As usually defined, the IC50 is the concentration needed to halve the response being measured. The low end stands for greater potency in that assay, the high end for weaker potency in that assay. What is called viability is a read-out of living cells in per cent, often relative to untreated cells. Read a high viability as less harm to the cells. Consider `COc1ccc(C2C(F)C(=O)N2c2cc(OC)c(OC)c(OC)c2)cc1F` (stereo not drawn) [Compound 33, 3-Fluoro-4-(3-fluoro-4-methoxyphenyl)-1-(3,4,5-trimethoxyphenyl)azetidin-2-one], for which, in the data set on survivin, the survivin expression entry is on record as “downregulation”. The compound also returned an IC50 in the data set on HEK-293T cells of over 50 µM. Moreover, the viability at 72 h, 1 µM in data set [1] is 88%.
